Data taken from patent publication US11312727B1, “Macrocyclic flu endonuclease inhibitors” (Janssen BioPharma, Inc., priority 2018, dated 2022).
pEC50: −log10 of the molar value.

Legend:
in vitro = settings: human, CC50, uninfected A549 cells, CellTiter-Glo
[1] = system: Influenza strain A549 A/WSN/33 (H1N1); experiment: microbe, parasite or virus in culture; type: cell-based; settings: Influenza A virus, A549, 20 h, A549 cells, influenza A/WSN/33 (H1N1), 20 hours incubation; read-out: A549_A(H1N1) EC50

Q: Which results are given for CC[C@@H]1/C=C/COc2cc(Cl)ccc2[C@H](c2ccccc2)N2CN1C(=O)c1c(O)c(=O)ccn12 (single isomer, unassigned) [Compound 97BA]?
A: CC50 (in vitro): > 1000 nM; pEC50 [1]: < 6.30

Q: With CC[C@H]1/C=C/COc2cc(Cl)ccc2[C@H](c2ccccc2)N2CN1C(=O)c1c(O)c(=O)ccn12 (single isomer, unassigned) [Compound 97BB] as the molecule, how does the CC50 (in vitro) read?
A: > 1000 nM

Q: And the pEC50 [1]?
A: < 6.30

Q: With CC[C@H]1/C=C/COc2c(Cl)cccc2[C@H](c2ccccc2)N2CN1C(=O)c1c(O)c(=O)ccn12 (single isomer, unassigned) [Compound 98AA, (9*S,18*S,E)-4-chloro-9-ethyl-12-hydroxy-18-phenyl-6,9-dihydro-18H-10,17-methanobenzo[b]pyrido[1,2-f][1]oxa[5,6,9]triazacyclotridecine-11,13-dione] as the molecule, how does the CC50 (in vitro) read?
A: > 1000 nM

Q: What about the pEC50 [1] of the same molecule?
A: < 6.30

Q: For CC[C@@H]1/C=C/COc2c(Cl)cccc2[C@H](c2ccccc2)N2CN1C(=O)c1c(O)c(=O)ccn12 (single isomer, unassigned) [Compound 98AB, (9*R,18*S,E)-4-chloro-9-ethyl-12-hydroxy-18-phenyl-6,9-dihydro-18H-10,17-methanobenzo[b]pyrido[1,2-f][1]oxa[5,6,9]triazacyclotridecine-11,13-dione], which CC50 (in vitro) is on record?
A: > 200 nM

Q: What about the pEC50 [1] of the same molecule?
A: 8.66

Q: Which results are given for CC[C@H]1/C=C/COc2c(Cl)cccc2[C@@H](c2ccccc2)N2CN1C(=O)c1c(O)c(=O)ccn12 (single isomer, unassigned) [Compound 98BA, (9*S,18*R,E)-4-chloro-9-ethyl-12-hydroxy-18-phenyl-6,9-dihydro-18H-10,17-methanobenzo[b]pyrido[1,2-f][1]oxa[5,6,9]triazacyclotridecine-11,13-dione]?
A: CC50 (in vitro): 26400 nM; pEC50 [1]: 6.08

Q: With CC[C@@H]1/C=C/COc2c(Cl)cccc2[C@@H](c2ccccc2)N2CN1C(=O)c1c(O)c(=O)ccn12 (single isomer, unassigned) [Compound 98BB, (9*R,18*R,E)-4-chloro-9-ethyl-12-hydroxy-18-phenyl-6,9-dihydro-18H-10,17-methanobenzo[b]pyrido[1,2-f][1]oxa[5,6,9]triazacyclotridecine-11,13-dione] as the molecule, how does the CC50 (in vitro) read?
A: > 1000 nM

Q: What about the pEC50 [1] of the same molecule?
A: 8.68

Q: Which results are given for O=C1c2c(O)c(=O)ccn2N2CN1CCOCCOc1ccccc1[C@H]2c1ccccc1 (single isomer, unassigned) [Compound 99A, (2*R)-18-hydroxy-2-phenyl-9,12-dioxa-1,15,22-triazatetracyclo[13.7.1.03,8.017,22]tricosa-3,5,7,17,20-pentaene-16,19-dione]?
A: CC50 (in vitro): > 1000 nM; pEC50 [1]: < 6.30

Q: With O=C1c2c(O)c(=O)ccn2N2CN1CCOCCOc1ccccc1[C@@H]2c1ccccc1 (single isomer, unassigned) [Compound 99B, (2*S)-18-hydroxy-2-phenyl-9,12-dioxa-1,15,22-triazatetracyclo[13.7.1.03,8.017,22]tricosa-3,5,7,17,20-pentaene-16,19-dione] as the molecule, how does the CC50 (in vitro) read?
A: > 1000 nM

Q: What about the pEC50 [1] of the same molecule?
A: 6.78

Q: Which CC50 (in vitro) does the source give for C[C@H]1C/C=C/COc2c(F)cccc2[C@@H](c2ccccc2)N2CN1C(=O)c1c(O)c(=O)ccn12 (single isomer, unassigned) [Compound 100AA, (2*R,9*S,*E)-33-fluoro-15-hydroxy-9-methyl-2-phenyl-12,13,14,16-tetrahydro-11H-4-oxa-1(1,3)-pyrido[2,1-f][1,2,4]triazina-3(1,2)-benzenacyclononaphan-6-ene-14,16-dione] here?
A: > 100 nM

Q: And the pEC50 [1]?
A: 8.77

Q: With C[C@@H]1C/C=C/COc2c(F)cccc2[C@@H](c2ccccc2)N2CN1C(=O)c1c(O)c(=O)ccn12 (single isomer, unassigned) [Compound 100AB, (2*R,9*R,*E)-33-fluoro-15-hydroxy-9-methyl-2-phenyl-12,13,14,16-tetrahydro-11H-4-oxa-1(1,3)-pyrido[2,1-f][1,2,4]triazina-3(1,2)-benzenacyclononaphan-6-ene-14,16-dione] as the molecule, how does the CC50 (in vitro) read?
A: > 200 nM

Q: What about the pEC50 [1] of the same molecule?
A: 8.68

Q: Which results are given for C[C@H]1C/C=C/COc2c(F)cccc2[C@H](c2ccccc2)N2CN1C(=O)c1c(O)c(=O)ccn12 (single isomer, unassigned) [Compound 100BA, (2*S,9*S,*E)-33-fluoro-15-hydroxy-9-methyl-2-phenyl-12,13,14,16-tetrahydro-11H-4-oxa-1(1,3)-pyrido[2,1-f][1,2,4]triazina-3(1,2)-benzenacyclononaphan-6-ene-14,16-dione]?
A: CC50 (in vitro): 40200 nM; pEC50 [1]: 5.28

Q: Which CC50 (in vitro) does the source give for C[C@@H]1C/C=C/COc2c(F)cccc2[C@H](c2ccccc2)N2CN1C(=O)c1c(O)c(=O)ccn12 (single isomer, unassigned) [Compound 100BB, (2*S,9*R,*E)-33-fluoro-15-hydroxy-9-methyl-2-phenyl-12,13,14,16-tetrahydro-11H-4-oxa-1(1,3)-pyrido[2,1-f][1,2,4]triazina-3(1,2)-benzenacyclononaphan-6-ene-14,16-dione] here?
A: 32500 nM

Q: What about the pEC50 [1] of the same molecule?
A: 5.94

Q: With O=C1c2c(O)c(=O)ccn2N2CN1C/C=C\COc1c(ccc(Cl)c1Cl)[C@H]2c1ccccc1 (single isomer, unassigned) [Compound 103A, (18*R,Z)-3,4-dichloro-12-hydroxy-18-phenyl-6,9-dihydro-18H-10,17-methanobenzo[b]pyrido[1,2-f][1]oxa[5,6,9]triazacyclotridecine-11,13-dione] as the molecule, how does the CC50 (in vitro) read?
A: > 200 nM

Q: And the pEC50 [1]?
A: < 7.00

Q: For O=C1c2c(O)c(=O)ccn2N2CN1C/C=C\COc1c(ccc(Cl)c1Cl)[C@@H]2c1ccccc1 (single isomer, unassigned) [Compound 103B, (18*S,Z)-3,4-dichloro-12-hydroxy-18-phenyl-6,9-dihydro-18H-10,17-methanobenzo[b]pyrido[1,2-f][1]oxa[5,6,9]triazacyclotridecine-11,13-dione], which CC50 (in vitro) is on record?
A: > 200 nM

Q: And the pEC50 [1]?
A: 8.51

Q: For O=C1c2c(O)c(=O)ccn2N2CN1C/C=C\COc1c(F)cccc1[C@@H]2c1cccc(F)n1 (single isomer, unassigned) [Compound 104A, (18*R,*Z)-4-fluoro-18-(6-fluoropyridin-2-yl)-12-hydroxy-6,9-dihydro-18H-10,17-methanobenzo[b]pyrido[1,2-f][1]oxa[5,6,9]triazacyclotridecine-11,13-dione], which CC50 (in vitro) is on record?
A: > 200 nM

Q: What about the pEC50 [1] of the same molecule?
A: 7.97

Q: Which CC50 (in vitro) does the source give for O=C1c2c(O)c(=O)ccn2N2CN1C/C=C\COc1c(F)cccc1[C@H]2c1cccc(F)n1 (single isomer, unassigned) [Compound 104B, (18*S,*Z)-4-fluoro-18-(6-fluoropyridin-2-yl)-12-hydroxy-6,9-dihydro-18H-10,17-methanobenzo[b]pyrido[1,2-f][1]oxa[5,6,9]triazacyclotridecine-11,13-dione] here?
A: > 200 nM

Q: And the pEC50 [1]?
A: < 7.00

Q: What does the source list for CC[C@H]1C/C=C/COc2c(F)cccc2[C@@H](c2ccccc2)N2CN1C(=O)c1c(O)c(=O)ccn12 (single isomer, unassigned) [Compound 105AA, (2*R,9*S,*E)-9-ethyl-33-fluoro-15-hydroxy-2-phenyl-12,13,14,16-tetrahydro-11H-4-oxa-1(1,3)-pyrido[2,1-f][1,2,4]triazina-3(1,2)-benzenacyclononaphan-6-ene-14,16-dione]?
A: CC50 (in vitro): > 200 nM; pEC50 [1]: 8.66

Q: Which results are given for CC[C@@H]1C/C=C/COc2c(F)cccc2[C@@H](c2ccccc2)N2CN1C(=O)c1c(O)c(=O)ccn12 (single isomer, unassigned) [Compound 105AB, (2*R,9*R,*E)-9-ethyl-33-fluoro-15-hydroxy-2-phenyl-12,13,14,16-tetrahydro-11H-4-oxa-1(1,3)-pyrido[2,1-f][1,2,4]triazina-3(1,2)-benzenacyclononaphan-6-ene-14,16-dione]?
A: CC50 (in vitro): > 200 nM; pEC50 [1]: 8.72

Q: With CC[C@H]1C/C=C/COc2c(F)cccc2[C@H](c2ccccc2)N2CN1C(=O)c1c(O)c(=O)ccn12 (single isomer, unassigned) [Compound 105BA, (2*S,9*S,*E)-9-ethyl-33-fluoro-15-hydroxy-2-phenyl-12,13,14,16-tetrahydro-11H-4-oxa-1(1,3)-pyrido[2,1-f][1,2,4]triazina-3(1,2)-benzenacyclononaphan-6-ene-14,16-dione] as the molecule, how does the CC50 (in vitro) read?
A: > 200 nM

Q: And the pEC50 [1]?
A: < 7.00

Q: For CC[C@@H]1C/C=C/COc2c(F)cccc2[C@H](c2ccccc2)N2CN1C(=O)c1c(O)c(=O)ccn12 (single isomer, unassigned) [Compound 105BB, (2*S,9*R,*E)-9-ethyl-33-fluoro-15-hydroxy-2-phenyl-12,13,14,16-tetrahydro-11H-4-oxa-1(1,3)-pyrido[2,1-f][1,2,4]triazina-3(1,2)-benzenacyclononaphan-6-ene-14,16-dione], which CC50 (in vitro) is on record?
A: > 200 nM

Q: And the pEC50 [1]?
A: < 7.00

Q: For O=C1c2c(O)c(=O)ccn2N2CN1C1(/C=C/COc3ccccc3[C@H]2c2ccccc2)CCC1 (single isomer, unassigned) [Compound 106A, (18′*R,E)-12′-hydroxy-18′-phenyl-6′H,18′H-spiro[cyclobutane-1,9′-[10,17]methanobenzo[b]pyrido[1,2-f][1]oxa[5,6,9]triazacyclotridecine]-11′,13′-dione], which CC50 (in vitro) is on record?
A: > 200 nM

Q: And the pEC50 [1]?
A: 8.46

Q: With O=C1c2c(O)c(=O)ccn2N2CN1C1(/C=C/COc3ccccc3[C@@H]2c2ccccc2)CCC1 (single isomer, unassigned) [Compound 106B, (18′*S,E)-12′-hydroxy-18′-phenyl-6′H,18′H-spiro[cyclobutane-1,9′-[10,17]methanobenzo[b]pyrido[1,2-f][1]oxa[5,6,9]triazacyclotridecine]-11′,13′-dione] as the molecule, how does the CC50 (in vitro) read?
A: > 200 nM

Q: And the pEC50 [1]?
A: < 7.00

Q: What does the source list for O=C1c2c(O)c(=O)ccn2N2CN1C1(/C=C/COc3cccc4c3[C@@H]2c2ccccc2SC4)CC1 (single isomer, unassigned) [Compound 107A, (17a′*R,*E)-12′-hydroxy-2′,17a′-dihydro-6′H-spiro[cyclopropane-1,9′-[3,4](epiprop[1]en[1]yl[3]ylidene)[10,17]methanobenzo[6,7]thiepino[4,5-c]pyrido[1,2-f][1]oxa[5,6,9]triazacyclotridecine]-11′,13′-dione]?
A: CC50 (in vitro): > 200 nM; pEC50 [1]: < 7.00
